In patent US10934278B2, “Compounds” (Autifony Therapeutics Limited, priority 2016, dated 2021):

Columns and labels:
[1] = system: rat model of neuropathic pain; test: Neuropathic pain model, partial ligation of the sciatic nerve, paw withdrawal thresholds; assay type: in vivo; settings: for Peak reversal of mechanical sensitivity: 3 h post-dose
Experimental: (§1) Subjects comprised male, Wistar Hanover rats, 6 animals per group (225±2 g).
(§2) Vehicle (12% Captisol®; 0.5% w/v HPMC and 0.1% w/v Tween-80; 5 ml/kg via the intraperitoneal route) was prepared using autoclaved deionized water not more than one week prior to use.
(§3) The control for the neuropathic pain model was lamotrigine, administered at 30 mg/kg via oral delivery. The control for the inflammatory pain model was diclofenac, administered at 30 mg/kg via oral delivery. Statistical analysis was performed using one-way ANOVA, and comparisons were performed with time-matched vehicle group using Tukey's HSD test wherein *p<0.05, **p<0.01, ***p<0.001.
Neuropathic pain was induced by partial ligation of the sciatic nerve. Briefly, the rats were anaesthetised (isoflurane/O2 inhalation), the left sciatic nerve exposed at mid-thigh level through a small incision and ⅓ to ½ of the nerve thickness tightly ligated within a 7.0 silk suture. The wound was closed with surgical glue. Animals were allowed to recover and tested 12-15 days following surgery.
Withdrawal thresholds were measured on both the ipsilateral (ligated) and contralateral (non-ligated) paws, prior to (predose) and then up to 24 h following drug or vehicle administration.
Pre-dose behavioural measurements were obtained by measuring paw withdrawals 14 days following nerve ligation; before the initiation of drug treatment. Following treatment, further readings were taken at 1, 3, 6 and 24 hour after administration.
(§4) Mechanical hyperalgesia was examined in a model of neuropathic pain by measuring paw withdrawal thresholds (PWT) to increasing mechanical force applied to the dorsal surface of the rat paw using an Analgesymeter (Ugo-Basile, Milan) equipped with a wedge-shaped probe (area 1.75 mm^2). Cut-off was set at 250 g and the end-point was taken as withdrawal of the hind paw. Both ipsilateral and contralateral paw withdrawal readings were taken.
Cold sensitivity can be assessed using a commercially available cold-plate (Ugo Basile, Milan). The cold plate is allowed to stabilize for 5 minutes at the set temperature prior to testing. Paw withdrawal latencies (PWL) are determined with the cold-plate set at 10° C. The animals are lightly restrained and each hind paw in turn placed onto the surface of the cold-plate. The end point is taken as the withdrawal of the paw and recorded as the withdrawal latency for the ipsilateral and the contralateral paw. A maximum cut-off of 30 seconds is used for each paw.
(§5) Data were expressed as withdrawal threshold (g) and percentage reversals calculated according to the following formula: […]

[2] = system: rat model of persistent inflammatory pain; test: Persistent inflammatory pain model (FCA), paw withdrawal thresholds; assay type: in vivo
Experimental: as §1, §2, §3
Mechanical hyperalgesia was examined in a model of persistent inflammatory pain.
The hyperalgesia was induced by an intraplantar injection (25 μl) of Freund's Complete Adjuvant (FCA) into the left hind paw.
To assess the effect of the test compound, paw withdrawal thresholds were measured on both the ipsilateral (FCA-injected) and contralateral (non-injected) paws, prior to (naïve) and 24 h following FCA injection (predose), and then at 1, 3, 6 and 24 h after drug or vehicle administration.
as §4, §5

human Kv3.1 channels = biological target: T1, human Kv3.1 channels (Homo sapiens, UniProt P48547); test: hKv3.1 IonWorks Quattro whole-cell current potentiation assay; assay type: cell-based; settings: for % current increase @ conc 1.56 μM: Kv3.1, 1.56 μM; for % current increase @ conc 3.12 μM: Kv3.1, 3.12 μM; for % current increase @ conc 12.5 μM: Kv3.1, 12.5 μM; for EC50: hKv3.1, -15 mV voltage step, read-out: pEC50 (Kv3.1) (converted)
T1 construct: expressed in transfected cells; host or cells: CHO/Gam/E1A-clone22 (CGE22) cells, CHO-K1-derived, transiently transduced with BacMam (pFBM/human Kv3.1, MOI 50)
T1 sequence (P48547 1-511): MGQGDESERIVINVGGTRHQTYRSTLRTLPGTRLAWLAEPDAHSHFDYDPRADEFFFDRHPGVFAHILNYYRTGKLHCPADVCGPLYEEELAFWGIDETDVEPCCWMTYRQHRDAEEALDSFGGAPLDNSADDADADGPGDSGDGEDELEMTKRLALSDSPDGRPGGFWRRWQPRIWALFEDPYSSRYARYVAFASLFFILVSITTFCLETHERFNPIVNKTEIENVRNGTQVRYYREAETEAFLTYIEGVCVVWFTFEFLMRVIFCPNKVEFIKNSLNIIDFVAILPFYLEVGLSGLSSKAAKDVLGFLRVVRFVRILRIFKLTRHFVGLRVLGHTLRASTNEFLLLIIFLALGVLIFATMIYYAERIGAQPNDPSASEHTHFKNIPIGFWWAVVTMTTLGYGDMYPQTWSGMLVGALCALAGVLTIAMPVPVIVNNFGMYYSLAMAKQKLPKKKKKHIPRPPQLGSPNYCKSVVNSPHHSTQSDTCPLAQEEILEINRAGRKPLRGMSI
Description: To assess compound effects on human Kv3.1 channels (hKv3.1), CHO/Gam/E1A-clone22 alias CGE22 cells were transduced using a hKv3.1 BacMam reagent. This cell line was designed to be an improved CHO-K1-based host for enhanced recombinant protein expression as compared to wild type CHO-K1. The cell line was generated following the transduction of CHO-K1 cells with a BacMam virus expressing the Adenovirus-Gam1 protein and selection with Geneticin-G418, to generate a stable cell line, CHO/Gam-A3. CHO/Gam-A3 cells were transfected with pCDNA3-E1A-Hygro, followed by hygromycin-B selection and FACS sorting to obtain single-cell clones. BacMam-Luciferase and BacMam-GFP viruses were then used in transient transduction studies to select the clone based on highest BacMam transduction and recombinant protein expression. CGE22 cells were cultured in the same medium used for the hKv3.2 CHO-K1 stable cell line with the addition of 300 ug/ml hygromycin-B and 300 ug/ml G418. All other conditions were identical to those for hKv3.2 CHO-K1 cells. The day before an experiment 10 million CGE22 cells were plated in a T175 culture flask and the hKv3.1 BacMam reagent (pFBM/human Kv3.1) was added (MOI of 50). Transduced cells were used 24 h later.
Cell Preparation for Ion Works Quattro™ Experiments The day of the experiment, cells were removed from the incubator and the culture medium removed. Cells were washed with 5 ml of Dulbecco's PBS (DPBS) calcium and magnesium free and detached by the addition of 3 ml Versene (Invitrogen, Italy) followed by a brief incubation at 37° C. for 5 minutes. The flask was tapped to dislodge cells and 10 ml of DPBS containing calcium and magnesium was added to prepare a cell suspension. The cell suspension was then placed into a 15 ml centrifuge tube and centrifuged for 2 min at 1200 rpm. After centrifugation, the supernatant was removed and the cell pellet re-suspended in 4 ml of DPBS containing calcium and magnesium using a 5 ml pipette to break up the pellet. Cell suspension volume was then corrected to give a cell concentration for the assay of approximately 3 million cells per ml.
Experiments were conducted at r.t. using lonWorks Quattro™ planar array electrophysiology technology (Molecular Devices Corp.) with PatchPlate™ PPC. Stimulation protocols and data acquisition were carried out using a microcomputer (Dell Pentium 4). Planar electrode hole resistances (Rp) were determined by applying a 10 mV voltage step across each well. These measurements were performed before cell addition. After cell addition and seal formation, a seal test was performed by applying a voltage step from −80 mV to −70 mV for 160 ms. Following this, amphotericin-B solution was added to the intracellular face of the electrode to achieve intracellular access. Cells were held at −70 mV. Leak subtraction was conducted in all experiments by applying 50 ms hyperpolarizing (10 mV) prepulses to evoke leak currents followed by a 20 ms period at the holding potential before test pulses. For hKv3.2 and hKv3.1 assays, from the holding potential of −70 mV, a first test pulse to −15 mV was applied for 100 ms and following a further 100 ms at −70 mV, a second pulse to 40 mV was applied for 50 ms. Cells were then maintained for a further 100 ms at −100 mV and then a voltage ramp from −100 mV to 40 mV was applied over 200 ms. For hKv3.3 assays, from the holding potential of −70 mV, a first test pulse to 0 mV was applied for 500 ms and following a further 100 ms at −70 mV, a second pulse to 40 mV was applied for 200 ms. These longer test pulses were used to study inactivation of hKv3.3 channels. Test pulses protocol may be performed in the absence (pre-read) and presence (post-read) of the test compound. Pre- and post-reads may be separated by the compound addition followed by a 3 minute incubation.
The intracellular solution contained the following (in mM): K-gluconate 100, KCl 54, MgCl2 3.2, HEPES 5, adjusted to pH 7.3 with KOH. […]

Question: Which “Peak reversal of mechanical sensitivity” value ([1]; positive control, 30 mg/kg oral) does the source give for `Nc1nnc(-c2cccc(Cl)c2Cl)c(N)n1` [lamotrigine] here?
Answer: 67%

Question: What does the source list for `Cc1ccc(Oc2ncc(N3C(=O)NC(C)(C)C3=O)cn2)c2c1OCC21CC1` [Compound X, 5,5-dimethyl-3-[2-(7-methylspiro[2H-benzofuran-3,1′-cyclopropane]-4-yl)oxypyrimidin-5-yl]imidazolidine-2,4-dione]?
Answer: Peak reversal of mechanical sensitivity ([1]; 10 mg/kg i.p.): 31%; Peak reversal of mechanical sensitivity ([1]; 30 mg/kg i.p.): 73%; Peak reversal of mechanical sensitivity ([1]; 60 mg/kg i.p.): 81%; effect on mechanical sensitivity, ipsilateral paw ([1]; 10, 30, 60 mg/kg i.p.): dose-related reversal of mechanical sensitivity; changes in normal behaviour ([1]; administered acutely, neuropathic and inflammatory pain models): without causing significant changes in normal behaviour; contralateral paw withdrawal thresholds to mechanical pressure ([1]; rat, in vivo): significant increases; duration of efficacy ([1]; rat, in vivo): up to 6 h; time of maximal efficacy after dosing ([1]; rat, in vivo): 1 to 3 h; effect on cold sensitivity, ipsilateral paw ([1]; results not shown): marked, dose-related reversal of cold sensitivity; general behaviour observation ([1]; treated rats): induced flaccidity in some of the treated rats; Peak reversal of mechanical sensitivity ([2]; 10 mg/kg i.p., 3 h post-dose): 64%; Peak reversal of mechanical sensitivity ([2]; 30 mg/kg i.p., 1 h post-dose): 74%; Peak reversal of mechanical sensitivity ([2]; 60 mg/kg i.p., 1 h post-dose): 92%; reversal of mechanical sensitivity ([2]; 60 mg/kg i.p., 6 h post-dose): 45%; effect on mechanical sensitivity ([2]; 10, 30, 60 mg/kg i.p.): dose-related reversal of mechanical sensitivity; time of peak reversal post-dose ([2]; rat, in vivo): 1 to 3 h

Question: What does the source list for `Cc1ccc(O[C@@H]2CC[C@@H](N3C(=O)NC(C)(C)C3=O)C2)c2c1OCC21CC1` (racemic)?
Answer: % current increase @ conc 1.56 μM (human Kv3.1 channels): 7%; % current increase @ conc 3.12 μM (human Kv3.1 channels): 10%; % current increase @ conc 12.5 μM (human Kv3.1 channels): 12%; EC50 (human Kv3.1 channels): > 50.1 µM

Question: Which “% current increase @ conc 1.56 μM” value (human Kv3.1 channels) does the source give for `Cc1ccc(O[C@H]2C[C@H](N3C(=O)NC(C)(C)C3=O)C2)c2c1OCC21CC1` here?
Answer: 25%

Question: What about the “% current increase @ conc 3.12 μM” value (human Kv3.1 channels) of the same molecule?
Answer: 60%

Question: And the “% current increase @ conc 12.5 μM” value (human Kv3.1 channels)?
Answer: 105%

Question: And the EC50 (human Kv3.1 channels)?
Answer: 3.55 µM

Question: With `O=C(O)Cc1ccccc1Nc1c(Cl)cccc1Cl` [diclofenac] as the molecule, how does the “peak reversals in mechanical sensitivity” value ([2]; positive control, 30 mg/kg oral, 1 h post-dose) read?
Answer: 64%
